Data reported in PMC11079024, “Identification of a family of species-selective complex I inhibitors as potential anthelmintics” (Nature Communications, 2024).
Where “and” joins values, the source holds several entries; their conditions need not be identical. Equal entries are not always repeated. Where two headings read alike, the source gives them in different places.

Experiments:
[1] = biological target: C. elegans (N2) complex I (NADH:ubiquinone oxidoreductase) (Caenorhabditis elegans, UniProt P24887+Q93873+Q94360); assay: biochemical; format: biochemical
Chain of C. elegans (N2) complex I (NADH:ubiquinone oxidoreductase) (Q94360 17-199): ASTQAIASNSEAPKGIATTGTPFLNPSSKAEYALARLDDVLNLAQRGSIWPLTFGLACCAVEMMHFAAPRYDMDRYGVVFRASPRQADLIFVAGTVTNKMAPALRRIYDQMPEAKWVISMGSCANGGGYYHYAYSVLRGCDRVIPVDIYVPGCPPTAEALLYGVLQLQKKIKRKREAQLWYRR
Chain of C. elegans (N2) complex I (NADH:ubiquinone oxidoreductase) (P24887 whole entry): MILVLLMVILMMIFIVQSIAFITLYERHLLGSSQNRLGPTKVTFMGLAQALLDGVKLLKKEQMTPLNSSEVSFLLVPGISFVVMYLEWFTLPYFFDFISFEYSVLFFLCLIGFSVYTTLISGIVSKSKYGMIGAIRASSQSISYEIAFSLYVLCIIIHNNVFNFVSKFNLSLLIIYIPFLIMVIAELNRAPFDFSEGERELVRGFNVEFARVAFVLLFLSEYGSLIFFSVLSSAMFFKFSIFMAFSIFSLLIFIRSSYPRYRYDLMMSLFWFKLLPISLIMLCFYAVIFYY
Chain of C. elegans (N2) complex I (NADH:ubiquinone oxidoreductase) (Q93873 31-482): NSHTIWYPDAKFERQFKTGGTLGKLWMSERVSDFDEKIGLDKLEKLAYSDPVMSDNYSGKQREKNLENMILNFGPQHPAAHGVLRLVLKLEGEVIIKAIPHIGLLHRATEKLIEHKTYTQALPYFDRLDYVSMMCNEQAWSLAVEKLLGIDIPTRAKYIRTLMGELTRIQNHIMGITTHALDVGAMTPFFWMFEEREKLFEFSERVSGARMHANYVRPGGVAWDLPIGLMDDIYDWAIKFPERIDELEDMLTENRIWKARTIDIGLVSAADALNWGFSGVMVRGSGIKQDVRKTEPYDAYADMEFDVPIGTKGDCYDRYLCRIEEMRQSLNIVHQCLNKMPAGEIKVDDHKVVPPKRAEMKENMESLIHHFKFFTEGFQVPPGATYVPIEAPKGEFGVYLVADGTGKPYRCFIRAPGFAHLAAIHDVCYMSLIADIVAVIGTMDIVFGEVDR
Method: (§1) Mitochondria were isolated from the following free-living nematode strains: C. elegans—N2, CB3474, ECA882, ECA917, ECA1075, ECA1080; C. briggsae—AF16; P. pacificus—PS312; and P. hermaphrodita—B178. With the exception of the P. hermaphrodita strain B178, adult worms of each strain were grown in bulk through liquid culture to obtain mitochondria in sufficient quantities. Due to poor growth in liquid media, mixed stage populations of P. hermaphrodita were washed off and collected from NGM plates seeded with OP50. The isolation of mitochondria from all free-living nematode strains followed the protocol previously outlined in Burns et al.[24]. In brief, a 1 L saturated culture of E. coli HB101 was concentrated 20-fold in 50 mL complete S-medium. ~500,000 L1 worms synchronized from an embryo preparation performed the day prior were added to the S-media/HB101 suspension and grown to adulthood over the course of 3.5 days at 20 °C with shaking at 165 rpm. Following growth, worms were collected in 10 ×15 mL conical tubes and washed 7 times in M9 buffer. Worm suspensions were then combined into a single 15 mL conical tube and diluted to a final volume of 15 mL with M9 buffer. 1 mL aliquots of worm suspension were then distributed to 15 × 1.5 mL screw-cap microcentrifuge tubes and were pelleted at 500 g for 1 min. Excess M9 was aspirated without disturbing the worm pellet. 600 μL ice-cold isolate buffer A (250 mM sucrose, 10 mM Tris (pH 7.5), 1 mM EDTA, 1 mM PMSF (freshly prepared)) and 300 μL cold glass beads were then added to each tube. Tubes were incubated on ice for 10 min, and the worms were then lysed by bead beating (6 x 30 s, with 1 min cooling intervals). Tubes containing worm lysate were centrifuged at 1,000 g for 10 min at 4 °C and the supernatant was transferred to 15 new microcentrifuge tubes on ice. The tubes were centrifuged a second time at 1,000 g for 10 min at 4 °C and the supernatant was once again transferred to 15 new microcentrifuge tubes on ice. These tubes were then centrifuged at 16,000 g for 10 min at 4 °C. The resulting mitochondrial pellet was washed twice by re-suspension in 300 μL of ice-cold isolate buffer B (250 mM sucrose, 10 mM Tris (pH 7.5), 1 mM EDTA). Following the final wash, isolation buffer was aspirated from each tube and the pellets were flash-frozen in ethanol/dry ice and stored at −80 °C until needed.
(§2) The enzymatic activities of individual ETC complexes (I-IV) were assessed spectrophotometrically in isolated mitochondria using a Varioskan LUX Multimode plate reader (ThermoFisher Scientific). Mitochondrial pellets previously isolated were thawed on ice and resuspended in ice-cold isolation buffer (250 mM sucrose, 10 mM Tris (pH 7.5), 1 mM EDTA). The BCA assay (Walker, 1994) was used to quantify the protein concentration of mitochondria suspensions; solutions were diluted to a concentration of 0.2 mg/mL for use in all assays. For the complex I assay, mitochondria pellets were freeze-thawed on ice three times to increase enzyme accessibility. […] 20 μL mitochondria suspension was then added/mixed with a pipette to initiate the reaction. Immediately following the addition of mitochondria, absorbance was measured (complex I and II: 600 nm; complex III and IV: 550 nm) in 30 s intervals over 15 min. Enzymatic activity was determined in each reaction by plotting absorbance versus time and calculating the slope of the curve during the initial linear phase of the reaction. […] Percent activity of each complex was calculated by dividing the enzyme-specific activity of each well by the enzyme-specific activity of the corresponding solvent controls.
Chemical solutions were prepared in complex I assay buffer composed of 25 mM KPi buffer (pH 7.5), 3 mg/mL bovine serum albumin (BSA), 80 μM NADH, 60 μM decylubiquinone, 160 μM DCIP, 2 μM antimycin A and 2 mM KCN.
For preliminary screens of hit compounds, compounds were screened at 100 μM; data are the average of at least three biological replicates.

[2] = biological target: C. elegans complex II (succinate dehydrogenase) (Caenorhabditis elegans, UniProt O62215+P41956+Q09545); assay: In vitro complex II activity assay, C. elegans mitochondria; format: biochemical; settings: for Absorbance DCIP [600nm], complex II: single replicate
Chain of C. elegans complex II (succinate dehydrogenase) (P41956 30-182): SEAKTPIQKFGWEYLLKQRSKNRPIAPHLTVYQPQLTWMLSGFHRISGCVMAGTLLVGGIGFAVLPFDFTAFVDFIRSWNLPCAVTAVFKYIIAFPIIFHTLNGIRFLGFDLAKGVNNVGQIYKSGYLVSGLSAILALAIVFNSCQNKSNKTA
Chain of C. elegans complex II (succinate dehydrogenase) (Q09545 22-298): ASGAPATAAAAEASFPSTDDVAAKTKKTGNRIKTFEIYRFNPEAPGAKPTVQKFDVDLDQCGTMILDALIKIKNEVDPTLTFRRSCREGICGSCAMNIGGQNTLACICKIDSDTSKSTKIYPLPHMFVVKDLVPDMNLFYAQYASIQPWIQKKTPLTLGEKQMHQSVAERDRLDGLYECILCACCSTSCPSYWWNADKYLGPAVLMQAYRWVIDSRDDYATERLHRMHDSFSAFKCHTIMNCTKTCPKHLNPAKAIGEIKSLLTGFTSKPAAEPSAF
Chain of C. elegans complex II (succinate dehydrogenase) (Q09508 32-646, further chain): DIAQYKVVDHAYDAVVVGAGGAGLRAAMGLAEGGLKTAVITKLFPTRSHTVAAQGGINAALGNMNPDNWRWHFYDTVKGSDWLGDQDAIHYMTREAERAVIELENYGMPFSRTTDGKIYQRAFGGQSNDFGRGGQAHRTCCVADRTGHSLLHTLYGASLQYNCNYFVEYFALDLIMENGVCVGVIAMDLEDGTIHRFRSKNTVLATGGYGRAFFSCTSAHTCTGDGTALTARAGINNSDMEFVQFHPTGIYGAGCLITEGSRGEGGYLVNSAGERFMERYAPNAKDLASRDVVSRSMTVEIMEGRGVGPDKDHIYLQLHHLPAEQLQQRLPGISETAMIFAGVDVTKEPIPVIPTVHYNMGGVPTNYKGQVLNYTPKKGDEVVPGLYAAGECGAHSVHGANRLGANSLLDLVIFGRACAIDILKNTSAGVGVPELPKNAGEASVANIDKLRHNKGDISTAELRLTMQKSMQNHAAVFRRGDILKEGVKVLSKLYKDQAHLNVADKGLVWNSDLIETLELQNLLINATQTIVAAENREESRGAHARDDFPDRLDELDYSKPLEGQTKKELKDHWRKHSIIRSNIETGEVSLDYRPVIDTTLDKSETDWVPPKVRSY
Chain of C. elegans complex II (succinate dehydrogenase) (O62215 31-145): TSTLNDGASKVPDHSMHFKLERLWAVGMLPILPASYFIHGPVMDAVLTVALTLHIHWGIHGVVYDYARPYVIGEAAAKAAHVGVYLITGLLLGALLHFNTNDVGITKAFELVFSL
Method: as §1, §2
Complex II (succinate dehydrogenase) activity was assessed using the DCIP-coupled method previously described in Burns et al.[24].
For preliminary screens of hit compounds, compounds were screened at 100 μM; data are the average of at least three biological replicates. The complex I and II activity assays were used for additional dose-response experiments.

[3] = tested on: C. elegans complex IV (cytochrome C oxidase); assay: In vitro complex IV activity assay, C. elegans mitochondria; format: biochemical, Caenorhabditis elegans; settings: for CIV Activity: 100 μM inhibitor, in vitro activity relative to solvent control, N2 C. elegans mitochondria
Method: as §1, §2
Complex IV (cytochrome C oxidase) activity was determined by following the oxidation of CytC in the protocol outlined by Janssen and Boyle, 2019[60]. Reduced CytC was prepared fresh by adding 1 μL increments of 1 M dithiothreitol to a 1 mM solution of CytC and vortexing. A colour change from brown to orange/pink signals when CytC has been reduced.

[4] = tested on: C. elegans complex III (decylubiquinol-cytochrome C reductase); assay: In vitro complex III activity assay, C. elegans mitochondria; format: biochemical, Caenorhabditis elegans; settings: for CIII Activity: 100 μM inhibitor, in vitro activity relative to solvent control, N2 C. elegans mitochondria
Method: as §1, §2
Antimycin A-sensitive complex III (decylubiquinol-cytochrome C […]) activity was determined by measuring the reduction of cytochrome C (CytC) as optimized in Luo et al.[59]. Decylubiquinol for complex III assays was prepared fresh as described in Janssen and Boyle, 2019[60].

L1 wild-type C. elegans = settings: for Relative Motility: worm motility 3 hours after removal of KCN, relative to DMSO controls, single biological replicate
[5] = 100 μM of NPD compound, C. elegans mitochondria, individual biological replicates, 100 µM
[6] = 100 µM compound, relative to solvent control, mean (SEM)
[7] = 100 μM of NPD compound, C. elegans mitochondria, individual biological replicates
[8] = 100 μM of NPD compound, C. elegans mitochondria, mean of four biological replicates
[9] = 50 μM, hit = relative motility below 0.25 3 hours after removal of KCN

CCCCCC[C@H]1C(=O)O[C@H](C)[C@H](NC(=O)c2cccc(NC=O)c2O)C(=O)O[C@@H](C)[C@@H]1OC(=O)CC(C)C [Antimycin A, reference compound]
activity at 100 µM ([1]; 100 µM compound, relative to solvent control, mean (SEM), read-out: % Activity Complex I): 117% | activity at 100 µM ([1]; 100 μM inhibitor, in vitro activity relative to solvent control, N2 C. elegans mitochondria, Mean, read-out: CI Activity): 117% | activity at 100 µM ([1]; 100 μM inhibitor, in vitro activity relative to solvent control, N2 C. elegans mitochondria, single replicate, read-out: CI Activity): 119% | Percent in vitro activity, Complex I (single replicate Rep1-Rep4) [1, 5]: 116.806% and 115.361% and 116.592% | activity at 100 µM ([1]; 100 μM of NPD compound, C. elegans mitochondria, individual biological replicates, read-out: Percent in vitro activity, Complex I (single replicate Rep1-Rep4)): 119% | activity at 100 µM ([1]; 100 μM of NPD compound, C. elegans mitochondria, mean of four biological replicates, read-out: Percent in vitro activity, Complex I (Mean)): 117% | activity at 100 µM ([2]; 100 µM compound, relative to solvent control, mean (SEM), read-out: % Activity Complex II): 79.5% | activity at 100 µM ([2]; 100 μM inhibitor, in vitro activity relative to solvent control, N2 C. elegans mitochondria, Mean, read-out: CII Activity): 79.5% | Percent in vitro activity, Complex II (single replicate Rep1-Rep4) [2, 5]: 114.678% and 73.200% and 61.398% and 68.876% | activity at 100 µM ([2]; 100 μM of NPD compound, C. elegans mitochondria, mean of four biological replicates, read-out: Percent in vitro activity, Complex II (Mean)): 79.5% | % Activity Complex IV [3, 6]: 94.00 (1.10) % | CIV Activity ([3]; Mean): 94.002% | CIV Activity ([3]; single replicate): 97.456% and 95.348% and 87.857% and 95.349% | Percent in vitro activity, Complex IV (single replicate Rep1-Rep4) [3, 7]: 97.456% and 95.348% and 87.857% and 95.349% | Percent in vitro activity, Complex IV (Mean) [3, 8]: 94.002% | % Activity Complex III [4, 6]: 0.00 (0.0) % | CIII Activity ([4]; Mean): 0.000% | CIII Activity ([4]; single replicate): 0.000% | Percent in vitro activity, Complex III (single replicate Rep1-Rep4) [4, 7]: 0.000% | Percent in vitro activity, Complex III (Mean) [4, 8]: 0.000%

CCOc1ccc(CNc2nc3ccccc3n2CCN(CC)CC)cc1 [Compound 7768813]
Screen "Hit" (L1 wild-type C. elegans; [9]): Y (hits were identified as compounds that reduced relative motility below 0.25 (75% reduction)) | Relative Motility (L1 wild-type C. elegans; 50 μM): 0.210

c1ccc(Cn2c(-c3cncs3)nc3ccccc32)cc1 [Compound 7815425]
Hit (L1 wild-type C. elegans; active (hit) or inactive (non) at 50 μM in C. elegans assay of RQ-dependent metabolism): non

Brc1cc2nc[nH]c2c2ccccc12 [Compound 7873254]
Screen "Hit" (L1 wild-type C. elegans; 50 μM, hit = relative motility below 0.25 3 hours after the removal of KCN): Y (hits were identified as compounds that reduced relative motility below 0.25 (75% reduction))

CCC(C)c1ccccc1OCCn1cnc2ccccc21 (stereo not shown) [Compound 7925137]
Screen "Hit" (L1 wild-type C. elegans; [9]): Y (hits were identified as compounds that reduced relative motility below 0.25 (75% reduction)) | Relative Motility (L1 wild-type C. elegans; 50 μM): 0.220

c1ccc2c(c1)ncn2CCOc1ccc2c(c1)CCC2 [Compound 7925762]
Screen "Hit" (L1 wild-type C. elegans; 50 μM compound, hit = relative motility below 0.25 3 hours after removal of KCN): Y (hits were identified as compounds that reduced relative motility below 0.25 (75% reduction)) | Relative Motility (L1 wild-type C. elegans; 50 μM compound): 0.250

O=C(O)CC(=O)O [Malonate]
Absorbance DCIP [600nm], complex II ([2]; 30 s): 0.481 and 0.464 and 0.499 | Absorbance DCIP [600nm], complex II ([2]; 60 s): 0.480 and 0.464 and 0.499 | Absorbance DCIP [600nm], complex II ([2]; 90 s): 0.480 and 0.464 and 0.499 | Absorbance DCIP [600nm], complex II ([2]; 120 s): 0.480 and 0.464 and 0.499 | Absorbance DCIP [600nm], complex II ([2]; 150 s): 0.480 and 0.463 and 0.499 | Absorbance DCIP [600nm], complex II ([2]; 180 s): 0.480 and 0.463 and 0.499 | Absorbance DCIP [600nm], complex II ([2]; 210 s): 0.480 and 0.463 and 0.498 | Absorbance DCIP [600nm], complex II ([2]; 240 s): 0.480 and 0.463 and 0.498 | Absorbance DCIP [600nm], complex II ([2]; 270 s): 0.479 and 0.462 and 0.498 and 0.486 | Absorbance DCIP [600nm], complex II ([2]; 300 s): 0.479 and 0.461 and 0.498 and 0.486 | Absorbance DCIP [600nm], complex II ([2]; 330 s): 0.478 and 0.461 and 0.497 and 0.485 | Absorbance DCIP [600nm], complex II ([2]; 360 s): 0.477 and 0.460 and 0.496 and 0.484 | Absorbance DCIP [600nm], complex II ([2]; 390 s): 0.476 and 0.460 and 0.495 and 0.483 | Absorbance DCIP [600nm], complex II ([2]; 420 s): 0.476 and 0.459 and 0.494 and 0.482 | Absorbance DCIP [600nm], complex II ([2]; 450 s): 0.475 and 0.459 and 0.494 and 0.482 | Absorbance DCIP [600nm], complex II ([2]; 480 s): 0.475 and 0.458 and 0.494 and 0.481 | Absorbance DCIP [600nm], complex II ([2]; 510 s): 0.474 and 0.457 and 0.493 and 0.481 | Absorbance DCIP [600nm], complex II ([2]; 540 s): 0.473 and 0.457 and 0.492 and 0.480 | Absorbance DCIP [600nm], complex II ([2]; 570 s): 0.473 and 0.457 and 0.492 | Absorbance DCIP [600nm], complex II ([2]; 600 s): 0.472 and 0.457 and 0.491 | Absorbance DCIP [600nm], complex II ([2]; 630 s): 0.471 and 0.457 and 0.491 | Absorbance DCIP [600nm], complex II ([2]; 660 s): 0.470 and 0.456 and 0.490 | Absorbance DCIP [600nm], complex II ([2]; 690 s): 0.470 and 0.456 and 0.490 | Absorbance DCIP [600nm], complex II ([2]; 720 s): 0.470 and 0.455 and 0.489 | Absorbance DCIP [600nm], complex II ([2]; 750 s): 0.470 and 0.455 and 0.489 | Absorbance DCIP [600nm], complex II ([2]; 780 s): 0.469 and 0.454 and 0.489 | Absorbance DCIP [600nm], complex II ([2]; 810 s): 0.469 and 0.454 and 0.489 | Absorbance DCIP [600nm], complex II ([2]; 840 s): 0.470 and 0.453 and 0.490 | Absorbance DCIP [600nm], complex II ([2]; 870 s): 0.469 and 0.453 and 0.489 | Absorbance DCIP [600nm], complex II ([2]; 900 s): 0.468 and 0.453 and 0.489
